Laboratory results published in patent publication US20220395472A1 (Dermavant Sciences GmbH, priority 2021, published 2022).

System: adults with plaque psoriasis
Test: Long-term open-label extension study (PSOARING 3): Physician Global Assessment (PGA), treatment episodes, treatment success, remittive effect
Format: in vivo, human
Settings: for Average Duration of Episodes, Mean (SD) / Average Duration of Episodes, Median / Average Duration of Treatment Success, Median / Duration of 1st Episode, Mean (SD) / Duration of 1st Episode, Median / Duration of 1st Success, Mean (SD) / Duration of 1st Success, Median / Duration of 2nd Episode, Mean (SD) / Duration of 2nd Episode, Median / Duration of 2nd Success, Mean (SD) / Duration of 2nd Success, Median / Duration of 3rd Episode, Mean (SD) / Duration of 3rd Episode, Median / Duration of 3rd Success, Mean (SD) / Duration of 3rd Success, Median / Duration of 4th Episode, Mean (SD) / Duration of 4th Episode, Median / Duration of Last Episode, Mean (SD) / Duration of Last Episode, Median / Duration of Last Success, Mean (SD) / Duration of Last Success, Median / Total Duration of Treatment Episodes, Mean (SD) / Total Duration of Treatment Episodes, Median / Total Duration of Treatment Success, Mean (SD) / Total Duration of Treatment Success, Median / Average Duration of Treatment Success (treatment free interval), Mean (SD) / Average Duration of Treatment Success, Mean (SD): ITT; for Average Duration of Treatment Success (treatment free interval), Mean (SD): Overall (n=299)
Protocol: This extension study consisted of up to 40 weeks of treatment and a 4 week, safety follow up period.
At the completion of the Week 12 visit of the DB, pivotal Phase 3 study, eligibility of the subjects opting to enroll in this extension study was confirmed. Study visits during the treatment period for all subjects occurred every 4 weeks (±3 days). A phone call was performed at Week 2 (Day 15). Unscheduled visits may have occurred, as needed. Subjects who withdrew from this study before Week 40 returned to the study center for an Early Termination visit. The total duration of this extension study participation was 44 weeks. Subjects in this study were treated as follows based on their PGA score from the Week 12 visit in the DB, pivotal Phase 3 study (Study DMVT 505 3001 or Study DMVT 505 3002).
The PGA was used to assess the primary efficacy endpoint in this study. The PGA is a clinical tool for assessing the current state/severity of a subject's psoriasis at a given time point. It is a static, 5 point, morphological assessment of overall disease severity, as determined by the Investigator, using the clinical characteristics of erythema, scaling, and plaque thickness/elevation as guidelines; higher PGA scores represent more severe disease (0=clear, 1=almost clear, 2=mild, 3=moderate, and 4=severe). The BSA affected was not considered in scoring of the PGA. Variations of the PGA are frequently used in clinical studies because it is a simple assessment, similar to those used in clinical practice. The PGA was performed first, prior to the % BSA, PASI, and LTS assessments.
Time to event parameters, such as the time from treatment success to subsequent worsening (PGA≥2) or duration of treatment episode, were summarized by the Kaplan Meier product limit method using OC.

CC(C)c1c(O)cc(/C=C/c2ccccc2)cc1O [Tapinarof, 3,5-Dihydroxy-4-isopropyl-trans-stilbene]
PGA 3 - Moderate (Baseline, Overall): 249 (32.8) n (%)
PGA 4 - Severe (Baseline, Overall): 23 (3.0) n (%)
PGA 0 - Clear (Baseline, Tapinarof (Pivotal)): 73 (14.5) n (%)
PGA 1 - Almost Clear (Baseline, Tapinarof (Pivotal)): 144 (28.5) n (%)
PGA 2 - Mild (Baseline, Tapinarof (Pivotal)): 188 (37.2) n (%)
PGA 3 - Moderate (Baseline, Tapinarof (Pivotal)): 93 (18.4) n (%)
PGA 4 - Severe (Baseline, Tapinarof (Pivotal)): 7 (1.4) n (%)
Average Duration of Episodes, Mean (SD) (Overall): 162.7 (96.20) days
Average Duration of Episodes, Median (Overall): 168.0 days
Average Duration of Treatment Success, Median (Overall): 84.0 days
Duration of 1st Episode, Mean (SD) (Overall): 163.1 (97.10) days
Duration of 1st Episode, Median (Overall): 169.0 days
Duration of 1st Success, Mean (SD) (Overall): 100.0 (78.49) days
Duration of 1st Success, Median (Overall): 84.0 days
Duration of 2nd Episode, Mean (SD) (Overall): 74.0 (55.35) days
Duration of 2nd Episode, Median (Overall): 57.0 days
Duration of 2nd Success, Mean (SD) (Overall): 65.4 (60.68) days
Duration of 2nd Success, Median (Overall): 41.0 days
Duration of 3rd Episode, Mean (SD) (Overall): 50.4 (41.38) days
Duration of 3rd Episode, Median (Overall): 32.5 days
Duration of 3rd Success, Mean (SD) (Overall): 30.0 (26.46) days
Duration of 3rd Success, Median (Overall): 28.0 days
Duration of 4th Episode, Mean (SD) (Overall): 1.0 (NE) days
Duration of 4th Episode, Median (Overall): 1.0 days
Duration of Last Episode, Mean (SD) (Overall): 162.4 (98.51) days
Duration of Last Episode, Median (Overall): 169.0 days
Duration of Last Success, Mean (SD) (Overall): 95.4 (82.18) days
Duration of Last Success, Median (Overall): 64.0 days
Total Duration of Treatment Episodes, Mean (SD) (Overall): 177.6 (90.38) days
Total Duration of Treatment Episodes, Median (Overall): 197.0 days
Total Duration of Treatment Success, Mean (SD) (Overall): 119.3 (81.80) days
Total Duration of Treatment Success, Median (Overall): 112.0 days
Average Duration of Treatment Success (treatment free interval), Mean (SD): 97.9 (76.60) days
Average Duration of Treatment Success (treatment free interval), Mean (SD) (listed as tapinarof): 97.9 days
Average Duration of Episodes, Mean (SD) (Tapinarof (Pivotal) group): 157.1 (97.16) days
Average Duration of Episodes, Median (Tapinarof (Pivotal) group): 140.5 days
Average Duration of Treatment Success, Mean (SD) (Tapinarof (Pivotal) group): 102.4 (77.90) days
Average Duration of Treatment Success, Median (Tapinarof (Pivotal) group): 84.0 days
Duration of 1st Episode, Mean (SD) (Tapinarof (Pivotal) group): 156.6 (98.77) days
Duration of 1st Episode, Median (Tapinarof (Pivotal) group): 147.5 days
Duration of 1st Success, Mean (SD) (Tapinarof (Pivotal) group): 103.0 (80.13) days
Duration of 1st Success, Median (Tapinarof (Pivotal) group): 84.0 days
Duration of 2nd Episode, Mean (SD) (Tapinarof (Pivotal) group): 80.7 (58.54) days
Duration of 2nd Episode, Median (Tapinarof (Pivotal) group): 60.5 days
Duration of 2nd Success, Mean (SD) (Tapinarof (Pivotal) group): 76.5 (63.07) days
Duration of 2nd Success, Median (Tapinarof (Pivotal) group): 56.0 days
Duration of 3rd Episode, Mean (SD) (Tapinarof (Pivotal) group): 49.6 (52.51) days
Duration of 3rd Episode, Median (Tapinarof (Pivotal) group): 28.0 days
Duration of 3rd Success, Mean (SD) (Tapinarof (Pivotal) group): 32.7 (28.40) days
Duration of 3rd Success, Median (Tapinarof (Pivotal) group): 28.5 days
Duration of Last Episode, Mean (SD) (Tapinarof (Pivotal) group): 157.6 (99.25) days
Duration of Last Episode, Median (Tapinarof (Pivotal) group): 168.0 days
Duration of Last Success, Mean (SD) (Tapinarof (Pivotal) group): 101.5 (83.51) days
Duration of Last Success, Median (Tapinarof (Pivotal) group): 82.5 days
Total Duration of Treatment Episodes, Mean (SD) (Tapinarof (Pivotal) group): 173.2 (92.39) days
Total Duration of Treatment Episodes, Median (Tapinarof (Pivotal) group): 196.0 days
Total Duration of Treatment Success, Mean (SD) (Tapinarof (Pivotal) group): 125.4 (83.22) days
Total Duration of Treatment Success, Median (Tapinarof (Pivotal) group): 116.5 days
Average Duration of Episodes, Mean (SD) (Vehicle (Pivotal) group): 173.4 (93.60) days
Average Duration of Episodes, Median (Vehicle (Pivotal) group): 195.0 days
Average Duration of Treatment Success, Mean (SD) (Vehicle (Pivotal) group): 86.8 (72.58) days
Average Duration of Treatment Success, Median (Vehicle (Pivotal) group): 64.0 days
Duration of 1st Episode, Mean (SD) (Vehicle (Pivotal) group): 175.5 (92.74) days
Duration of 1st Episode, Median (Vehicle (Pivotal) group): 196.0 days
Duration of 1st Success, Mean (SD) (Vehicle (Pivotal) group): 92.8 (74.32) days
Duration of 1st Success, Median (Vehicle (Pivotal) group): 85.0 days
Duration of 2nd Episode, Mean (SD) (Vehicle (Pivotal) group): 57.8 (43.31) days
Duration of 2nd Episode, Median (Vehicle (Pivotal) group): 38.0 days
Duration of 2nd Success, Mean (SD) (Vehicle (Pivotal) group): 39.1 (45.75) days
Duration of 2nd Success, Median (Vehicle (Pivotal) group): 28.0 days
Duration of 3rd Episode, Mean (SD) (Vehicle (Pivotal) group): 51.6 (24.51) days
Duration of 3rd Episode, Median (Vehicle (Pivotal) group): 56.0 days
Duration of 3rd Success, Mean (SD) (Vehicle (Pivotal) group): 19.3 (15.89) days
Duration of 3rd Success, Median (Vehicle (Pivotal) group): 28.0 days
Duration of 4th Episode, Mean (SD) (Vehicle (Pivotal) group): 1.0 (NE) days
Duration of 4th Episode, Median (Vehicle (Pivotal) group): 1.0 days
Duration of Last Episode, Mean (SD) (Vehicle (Pivotal) group): 171.4 (96.61) days
Duration of Last Episode, Median (Vehicle (Pivotal) group): 195.0 days
Duration of Last Success, Mean (SD) (Vehicle (Pivotal) group): 80.5 (77.32) days
Duration of Last Success, Median (Vehicle (Pivotal) group): 56.0 days
Total Duration of Treatment Episodes, Mean (SD) (Vehicle (Pivotal) group): 185.9 (85.95) days
Total Duration of Treatment Episodes, Median (Vehicle (Pivotal) group): 197.0 days
Total Duration of Treatment Success, Mean (SD) (Vehicle (Pivotal) group): 104.3 (76.62) days
